Where two headings read alike, the source gives them in different places.

Series [1] in a line: Particle size distribution by laser diffraction (Malvern Mastersizer 3000, circulating aqueous suspension). The series is classed as physicochemical. As to conditions: volume distribution. The procedure: For the purpose of this invention, particle size distribution is determined as the percent volume at each particle size and measured by a laser diffraction method in the context of a circulating aqueous suspension. A Malvern Mastersizer 3000 laser diffraction analyzer equipped with a Hydro EV measurement cell was used. About 50 mg of sample were filled into a 15 ml glass test tube. The sample was wetted with two drops of Tween 80 and vortexed. Then the thoroughly wetted sample was dispersed in about 7 mL of UHQ-water by vortexing until the particles were dispersed. The suspension was treated for 7 minutes in an ultrasonification bath at RT (Elma S50H). The well dispersed suspension was then measured in water by adding a sample from the center of the test tube containing the well dispersed suspension to a water-filled dispersion unit prefilled with 70 mL of water. The sample in the 70 mL dispersion unit was kept under stirring at 2000 rpm. More sample from the test tube was added, until a targeted obscuration range of 10-25 percent was achieved. The Malvern Mastersizer was operated using the following parameters:
Measurement occurred after an optical alignment of the laser was done and after a background measurement was run. A measurement sequence consisted of eight individual measurements for which the mean value was represented as a histogram.
d90 as used herein means that 90% of the particles (based on volume) are smaller than or equal to the indicated size.
d50 as used herein means that 50% of the particles (based on volume) are smaller than or equal to the indicated size.
d10 as used herein means that 10% of the particles (based on volume) are smaller than or equal to the indicated size.
Particle size distribution was measured with a Malvern Mastersizer 3000 laser diffraction analyzer equipped with a Hydro EV measurement cell. About 50 mg of sample were given into a test tube. The sample was wetted with two drops of Tween 80 and dispersed in about 7 ml of water on a Vortexer. The suspension was treated for 7 minutes in a ultrasonification bath (Elma S50H). The well dispersed suspension was afterwards measured in water at a targeted obscuration range of 10-25 percent while circulating the aqueous suspension and stirring the suspension reservoir at 2000 rpm after a waiting period of three minutes. A fraunhofer optical model was utilized to deconvolute the sample scattering patterns to yield the resultant particle size distributions. Analysis model: General purpose/normal sensitivity. Measuring/background time: about 10 sec

A short description of series [2]: Polymorphic stability of brexpiprazole dihydrate during wet ball milling, checked by PXRD. The conditions noted are these: ball mill 25 Hz, 0.2 mL water, 10° C. The series is classed as physicochemical. As for the experimental part:
The powder X-ray diffractogram was obtained with a PANalytical X'Pert PRO diffractometer equipped with a theta/theta coupled goniometer in transmission geometry, Cu-Kalpha1,2 radiation (wavelength 0.15419 nm) with a focusing mirror and a solid state PIXcel detector. The diffractogram was recorded at a tube voltage of 45 kV and a tube current of 40 mA, applying a stepsize of 0.013° 2-Theta with 40 s per step (255 channels) in the angular range of 2° to 40° 2-Theta at ambient conditions. A typical precision of the 2-Theta values is in the range of ±0.2° 2-Theta. […]
500 mg brexpiprazole dihydrate from comparative example 1 were milled in the presence of 0.2 mL water at 10° C. with a Retsch MM301 ball mill at 25 Hz for 5 min (1.5 ml jacket and 1 steel ball of 5 mm diameter). The obtained micronized crystalline material was analysed by PXRD and PSD. […] (Determined by the laser diffraction method in the context of a circulating aqueous suspension as the percent volume at each particle size and measured by a Malvern Mastersizer 3000 laser diffraction analyzer.)
500 mg brexpiprazole dihydrate from comparative example 1 were milled in the presence of 0.2 mL water at 10° C. with a Retsch MM301 ball mill at 25 Hz for 15 min (1.5 ml jacket and 1 steel ball of 5 mm diameter). The obtained micronized crystalline material was analysed by PXRD and PSD. […]

A short description of series [3]: Solubility in water at 25° C. The series is classed as physicochemical. An excerpt:
The brexpiprazole dihydrate can then be added to an aqueous medium in which it is hardly soluble to form a suspension.

For series [4] the following is noted: rats, intramuscular injection, 56 days after the injection, cited from earlier work.

`O=c1ccc2ccc(OCCCCN3CCN(c4cccc5sccc45)CC3)cc2[nH]1` [Example 1]: in series [1], the “particle size distribution d10” value worked out at 1.35 μm, the “particle size distribution d50” value is 8.24 μm and the “particle size distribution d90” value turned out to be 21 μm. Further, the “transformation of dihydrate to anhydrate form I during micronization (PXRD peaks at 6.8° and 17.4°)” value in series [2] (5 min) is given as “had not transformed to brexpiprazole anhydrate form I”.
For the compound `O=c1ccc2ccc(OCCCCN3CCN(c4cccc5sccc45)CC3)cc2[nH]1` [Example 2], in series [1], the “particle size distribution d10” value turned out to be 1.15 μm, the “particle size distribution d50” value was 7.04 μm and the “particle size distribution d90” value is given as 19 μm. In addition, the “transformation of dihydrate to anhydrate form I during micronization (PXRD peaks at 6.8°, 10.0° and 17.4°)” value in series [2] (15 min) was “had not transformed to brexpiprazole anhydrate form I”.
In the case of `O=c1ccc2ccc(OCCCCN3CCN(c4cccc5sccc45)CC3)cc2[nH]1` [brexpiprazole anhydrate], in series [3], the “solubility at 25° C. in water” value was 18 µg/mL. Further, in series [4], the “crystals detectable at the injection site” value is “no longer detectable”.
In turn, `O=c1ccc2ccc(OCCCCN3CCN(c4cccc5sccc45)CC3)cc2[nH]1` [brexpiprazole dihydrate, 7-[4-[4-(1-Benzothiophen-4-yl)piperazin-1-yl]butoxy]quinolin-2(1H)-one dihydrate] yielded a solubility in series [3] (25 °C) of 10 µg/mL. Moreover, in series [4] (dihydrate), the “crystals detectable at the injection site” value is “can still be detected”. For the same compound, in series [1] (listed as Reference Example 1, dihydrate), the “particle size distribution d90” value is “above 25 μm”.

These data come from patent publication US10501450B2, “Anhydrate-free polymorphically pure micronized crystalline brexpiprazole di-hydrate for use in intramuscular injectable sustained release formulations” (HEXAL AG, priority 2016, dated 2019).
